Measurements: patent US20100166714A1, “CARDIOVASCULAR STEM CELLS, METHODS FOR STEM CELL ISOLATION, AND USES THEREOF” (THE GENERAL HOSPITAL CORPORATION, priority 2006, published 2010)

Test system: FACS purified isl1+ progenitors spontaneously differentiated into smooth muscle cells
Assay: Calcium imaging (fluo-4) after Angiotensin II stimulation
Format: cell-based, mouse
Details: Angiotensin II 10^-7 M
Protocol: Calcium imaging. FACS purified isl1^+ progenitors from double heterozygous isl1-mER-Cre-mER/R26R were plated on fibronectin coated glass chamber slides and allowed to spontaneously differentiate in DMEM/F12 containing B27 supplement, 2% FBS, and 10 ng/ml EGF. After 5 days in culture, cells were incubated for 20 minutes with 5 μM Fluo-4 AM (Molecular Probes) in HEPES buffer. Cells were then rinsed three times in HEPES buffer, pH 7.4, containing 1.5 mM Ca^2+. Angiotensin II was applied at the final concentration of 10^−7 M. Calcium imaging was acquired every 100 msec in 100 sec installment and analyzed using Metamorph software (Universal Imaging Corporation). Each experiment included three installments to cover the period of the agonist effect.

Angiotensin II (DRVYIHPF; Angiotensin-2; UniProt P01019 25-32, looked up)
measured cells in which exposure induced a progressive cytosolic [Ca2+]i increase (isl1+ progenitors from isl1-mER-Cre-mER/R26R mice after 5 days in culture, Fluo-4 AM): 4 of 25
time at which the cytosolic [Ca2+]i increase reached the maximum (responding cells, diminished thereafter): ~70 s
